Source: patent US20250101062A1, “ANTIMICROBIAL PEPTIDES” (Board of Regents of the University of Nebraska, priority 2023, published 2025)
Where two headings read alike, the source gives them in different places. Where no end group is shown, it is not given here.

How the values were obtained:
S. aureus USA300 LAC = test: microbe, parasite or virus in culture; format: cell-based, Staphylococcus aureus; conditions: for MIC: read-out: Antimicrobial activity (MIC)
Procedure: (§1) The following resistant bacterial clinical strains were used in this study: S. aureus USA300 LAC, S. epidermidis 1457, E. coli E423-17, P. aeruginosa E411-17, K. pneumoniae E406-17, and A. baumannii B28-16. While the S. aureus USA300 strain is methicillin-resistant, most of the Gram-negative bacteria contain extended-spectrum beta-lactamase and are resistant to beta-lactam antibiotics. Peptide activity against bacteria was tested using an established lab protocol (Mishra, et al. (2017) Acta Biomater., 49:316-328). In brief, a peptide concentration gradient with twofold dilution was made in the 96-well polystyrene microplate at 10 μL per well. Bacteria were grown to the exponential phase (i.e., optical density at 600 nm≈0.5), diluted to ˜10^5 CFU/mL in different percentages of MHB, TSB, or LB, and partitioned into the 96-well microplate at 90 μL per well. […] They were diluted with autoclaved distilled water to obtain different percentages. The microplates were incubated at 37° C. overnight and read on a ChroMate™ 4300 microplate reader at 600 nm (GMI, Ramsey, MN). The peptide concentration in the wells without bacterial growth is the MIC. As is the convention, MIC values were represented as ranges.
(§2) For pH effects on peptide activity, the pH of the medium was adjusted to a targeted pH for the autoclave and then remeasured at room temperature. For salt and serum effects on peptide activity, stock NaCl solution or human serum was added to the media.
(§3) Peptide activity against bacteria were tested using the CLSI standard procedure with minor modifications (Clinical and Laboratory Standards Institute (2018) Performance standards for antimicrobial susceptibility testing, 9th ed.; Mishra, et al. (2019) Proc. Natl. Acad. Sci., 116(27):13517-13522). In brief, a peptide concentration gradient with twofold dilution was made in the 96-well polystyrene microplate at 10 μL per well. Bacteria were grown to the exponential phase (i.e., optical density at 600 nm≈0.5), diluted to ˜10^5 CFU/mL in MHB, and partitioned into the 96-well microplate at 90 μL per well. The microplates were incubated at 37° C. overnight and read on a ChroMate® 4300 Microplate Reader at 600 nm (GMI, Ramsey, MN). The peptide concentration in the wells without bacterial growth is the minimal inhibitory concentration (MIC). As the convention, MIC values were represented as ranges.
(§4) For pH effects on peptide activity, the pH of the medium was adjusted to a targeted pH for autoclave and then remeasured at room temperature. For salt and serum effects on peptide activity, stock NaCl solution or human serum were added to the media.

E. coli E423-17 = format: cell-based, Escherichia coli
Procedure: as §1, §2, §3, §4

K. pneumoniae E406-17 = format: cell-based, Klebsiella pneumoniae
Procedure: as §1, §3

A. baumannii B28-16 = format: cell-based, Acinetobacter baumannii; conditions: B28-16
Procedure: as §1, §3

P. aeruginosa E411-17 = test: microbe, parasite or virus in culture; format: cell-based, Pseudomonas aeruginosa; conditions: E411-17
Procedure: as §1, §2, §3, §4

E. coli = conditions: data from the antimicrobial peptide database; cited from earlier work

## KRIVQRIKDFLR-NH2 (C-terminus assumed) [KR-12]
S. aureus USA300 LAC; MHB 12.5%
  Antimicrobial activity (MIC): active
S. aureus USA300 LAC; MHB 100%
  Antimicrobial activity (MIC): did not display any activity
S. aureus USA300 LAC; USA300
  Antimicrobial activity (MIC): 4 to 8 µM
  MIC: 4 µM
E. coli E423-17; MHB 100%
  Antimicrobial activity (MIC): active

## KRIWQRIK-NH2 [W539]
K. pneumoniae E406-17
  Activity (MIC) K. pneumoniae: >32 µM
S. aureus USA300 LAC; USA300
  Activity (MIC) S. aureus: >32 µM
E. coli E423-17; E423-17
  Activity (MIC) E.coli: >32 µM
A. baumannii B28-16
  Activity (MIC) A. baumannii: >32 µM
P. aeruginosa E411-17
  Activity (MIC) P. aeruginosa: >32 µM

## KRWWQRWK-NH2 [W541]
K. pneumoniae E406-17
  Activity (MIC) K. pneumoniae: >32 µM
S. aureus USA300 LAC; USA300
  Activity (MIC) S. aureus: >32 µM
E. coli E423-17; KR-8 series, Table 3
  Activity (MIC) E.coli: 8 µM
A. baumannii B28-16
  Activity (MIC) A. baumannii: >32 µM
P. aeruginosa E411-17
  Activity (MIC) P. aeruginosa: >32 µM

## KRWWQWWK-NH2 [W542]
K. pneumoniae E406-17
  Activity (MIC) K. pneumoniae: >32 µM
P. aeruginosa E411-17
  Activity (MIC) P. aeruginosa: 4 to 8 µM

## KWKFGKKLERIGQNVFRAAEKVLPVATGYAQLPATLAGAKQG (listed as Panorpa sp.) [Pvul-cec]
E. coli
  MIC against E. coli: 8 µg/mL

## LLGDFFRKSK-NH2 (C-terminus assumed) [LL-10]
S. aureus USA300 LAC; USA300
  MIC: >64 µM

## LRNLVPRTES-NH2 (C-terminus assumed) [LR-10]
S. aureus USA300 LAC; USA300
  MIC: >64 µM
E. coli E423-17; E423-17
  Antimicrobial activity (MIC): >64 µM

## NGNLLGGLLRPVLGVVKGLTGGLGKK (Pleurodema thaul) [Thaulin-1]
E. coli
  MIC against E. coli: 62.5 µg/mL

## RKSKEKIGK-NH2 (C-terminus assumed) [RK-9]
S. aureus USA300 LAC; USA300
  MIC: >64 µM
E. coli E423-17; E423-17
  Antimicrobial activity (MIC): >64 µM

## RWKFGKKLERMGKRIFKATEKGLPVATGVAALARG (Tunga penetrans) [Tpen-cec]
E. coli
  MIC against E. coli: 8 µg/mL

## RWKIFKKIEKVGQNIRDGIVKAGPAVAVVGQAATI (listed as Bombyx mori) [CM4]
E. coli
  MIC against E. coli: 12 µM

## RWKIFKRIEKVGRNVRDGVIKAGPAVAVLGQAKALGK (listed as Phyllodes eyndhovii) [Peyn-cec]
E. coli
  MIC against E. coli: 8 µg/mL

## SWLSKTAKKLENSAKKRIAEGIAIAIQGGPR (listed as Anisakis sp.) [Anisaxin-3]
E. coli
  MIC against E. coli: 0.5 to 1.0 µM
